Experimental data published in patent publication US12441703B2, “Carboxamides as modulators of sodium channels” (VERTEX PHARMACEUTICALS INCORPORATED, priority 2019, dated 2025).

The compounds below were run against human NaV 1.8 (Homo sapiens, UniProt Q9Y5Y9) (assay: E-VIPR assay for detecting and measuring NaV inhibition properties). Settings: E-VIPR assay conducted in the absence of human serum (compounds marked *); HEK cells expressing truncated human NaV 1.8; read-out: IC50.
human NaV 1.8, sequence (Q9Y5Y9 whole entry, looked up, the tested form may be a part): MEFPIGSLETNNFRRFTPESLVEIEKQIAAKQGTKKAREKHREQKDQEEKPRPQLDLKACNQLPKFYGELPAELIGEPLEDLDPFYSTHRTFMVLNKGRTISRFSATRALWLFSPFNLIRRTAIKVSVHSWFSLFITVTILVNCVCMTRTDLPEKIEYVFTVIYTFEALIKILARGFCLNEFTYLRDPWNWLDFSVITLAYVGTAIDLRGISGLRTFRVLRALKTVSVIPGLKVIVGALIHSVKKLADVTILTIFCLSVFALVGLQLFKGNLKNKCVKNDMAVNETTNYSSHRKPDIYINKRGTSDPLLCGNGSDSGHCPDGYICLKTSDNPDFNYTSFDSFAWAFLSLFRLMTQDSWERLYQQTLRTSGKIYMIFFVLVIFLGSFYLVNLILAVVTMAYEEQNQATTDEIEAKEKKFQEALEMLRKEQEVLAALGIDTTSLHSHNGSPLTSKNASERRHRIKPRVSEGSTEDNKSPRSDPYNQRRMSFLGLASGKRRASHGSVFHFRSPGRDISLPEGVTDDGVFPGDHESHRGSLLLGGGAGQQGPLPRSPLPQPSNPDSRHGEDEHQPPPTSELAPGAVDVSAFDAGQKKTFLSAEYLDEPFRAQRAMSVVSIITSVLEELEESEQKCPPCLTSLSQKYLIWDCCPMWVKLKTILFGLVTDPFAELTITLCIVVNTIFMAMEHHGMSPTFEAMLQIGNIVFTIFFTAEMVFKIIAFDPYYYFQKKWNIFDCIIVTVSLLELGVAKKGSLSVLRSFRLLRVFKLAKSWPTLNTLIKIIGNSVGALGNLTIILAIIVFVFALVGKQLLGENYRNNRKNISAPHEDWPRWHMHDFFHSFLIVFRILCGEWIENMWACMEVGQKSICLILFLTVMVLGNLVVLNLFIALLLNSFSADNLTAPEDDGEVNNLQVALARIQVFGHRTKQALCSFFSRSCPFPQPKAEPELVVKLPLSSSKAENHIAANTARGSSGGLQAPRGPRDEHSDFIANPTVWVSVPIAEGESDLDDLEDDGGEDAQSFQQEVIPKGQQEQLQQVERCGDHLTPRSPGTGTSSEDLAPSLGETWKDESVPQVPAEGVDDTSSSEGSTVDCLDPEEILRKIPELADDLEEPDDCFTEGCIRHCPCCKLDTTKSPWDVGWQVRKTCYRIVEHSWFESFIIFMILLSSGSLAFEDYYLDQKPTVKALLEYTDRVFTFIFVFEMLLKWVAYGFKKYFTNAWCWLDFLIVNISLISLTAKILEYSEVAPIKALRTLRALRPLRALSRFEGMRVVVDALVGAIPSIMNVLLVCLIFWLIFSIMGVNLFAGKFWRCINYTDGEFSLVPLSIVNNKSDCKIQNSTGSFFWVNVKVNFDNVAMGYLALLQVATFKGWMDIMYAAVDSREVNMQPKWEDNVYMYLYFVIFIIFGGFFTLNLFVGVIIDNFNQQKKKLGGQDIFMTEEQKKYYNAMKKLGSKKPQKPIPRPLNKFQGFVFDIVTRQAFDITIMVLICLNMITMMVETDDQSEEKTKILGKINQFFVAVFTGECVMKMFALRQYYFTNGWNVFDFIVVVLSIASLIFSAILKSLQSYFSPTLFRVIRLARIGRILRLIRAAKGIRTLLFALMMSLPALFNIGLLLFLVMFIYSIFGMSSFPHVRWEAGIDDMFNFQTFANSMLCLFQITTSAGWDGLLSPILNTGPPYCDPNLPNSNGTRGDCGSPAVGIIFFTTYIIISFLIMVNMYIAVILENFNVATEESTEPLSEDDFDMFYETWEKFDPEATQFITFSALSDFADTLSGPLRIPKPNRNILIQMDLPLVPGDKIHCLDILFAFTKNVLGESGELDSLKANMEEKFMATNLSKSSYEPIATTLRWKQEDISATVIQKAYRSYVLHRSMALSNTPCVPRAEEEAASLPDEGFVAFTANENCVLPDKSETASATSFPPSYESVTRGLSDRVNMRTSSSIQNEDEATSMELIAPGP
Type: cell-based
In short: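 Membrane-potential (coumarin/oxonol) readout after 10 s of 10 Hz biphasic electrical stimulation on E-VIPR. Compounds: 11-point 3-fold dilutions, […], 0.625% DMSO, 30 min at room temperature, human serum optional. Cells: HEK expressing truncated human NaV1.8 co-transduced with KIR2.1.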
An IC50 of 75 nM was found for `COc1c(Oc2cnc(C(F)(F)F)c(C)c2C(=O)Nc2ccc(C(N)=O)nc2)ccc(F)c1F` [Compound 358, N-(6-carbamoyl-3-pyridyl)-5-(3,4-difluoro-2-methoxy-phenoxy)-3-methyl-2-(trifluoromethyl)pyridine-4-carboxamide] in this work.

Same assay, conditions: E-VIPR assay conducted in the presence of human serum; HEK cells expressing truncated human NaV 1.8; read-out: IC50
An IC50 of 8.3 nM was found for `COc1c(Oc2cc3c(c(C)c2C(=O)Nc2ccnc(C(N)=O)c2)OC(F)(F)O3)ccc(OC(F)(F)F)c1F` [Compound 327, 4-[[2,2-difluoro-6-[3-fluoro-2-methoxy-4-(trifluoromethoxy)phenoxy]-4-methyl-1,3-benzodioxole-5-carbonyl]amino]pyridine-2-carboxamide] in this work.
An IC50 of 12.7 nM was found for `COc1c(Oc2ccc(C(F)(F)F)c(F)c2C(=O)Nc2cc(C(N)=O)ncn2)ccc(OC(F)(F)F)c1F` [Compound 329, 6-[[2-fluoro-6-[3-fluoro-2-methoxy-4-(trifluoromethoxy)phenoxy]-3-(trifluoromethyl)benzoyl]amino]pyrimidine-4-carboxamide] in this work.
An IC50 of 29 nM was found for `COc1c(Oc2ccc(C(F)(F)F)c(F)c2C(=O)Nc2cc(C(N)=O)ccn2)ccc(OC(F)(F)F)c1F` [Compound 330, 2-[[2-fluoro-6-[3-fluoro-2-methoxy-4-(trifluoromethoxy)phenoxy]-3-(trifluoromethyl)benzoyl]amino]pyridine-4-carboxamide] in this work.
An IC50 of 4.6 nM was found for `COc1c(Oc2ccc(C(F)(F)F)c(F)c2C(=O)Nc2cnc(C(N)=O)nc2)ccc(OC(F)(F)F)c1F` [Compound 331, 5-[[2-fluoro-6-[3-fluoro-2-methoxy-4-(trifluoromethoxy)phenoxy]-3-(trifluoromethyl)benzoyl]amino]pyrimidine-2-carboxamide] in this work.
An IC50 of 2.7 nM was found for `COc1c(Oc2cnc(C(F)(F)F)c(F)c2C(=O)Nc2ccnc(C(N)=O)c2)ccc(OC(F)(F)F)c1F` [Compound 332, N-(2-carbamoyl-4-pyridyl)-3-fluoro-5-[3-fluoro-2-methoxy-4-(trifluoromethoxy)phenoxy]-2-(trifluoromethyl)pyridine-4-carboxamide] in this work.
An IC50 of 4.9 nM was found for `COc1c(Oc2cnc(C(F)(F)F)c(OC)c2C(=O)Nc2ccnc(C(N)=O)c2)ccc(OC(F)(F)F)c1F` [Compound 333, N-(2-carbamoyl-4-pyridyl)-5-[3-fluoro-2-methoxy-4-(trifluoromethoxy)phenoxy]-3-methoxy-2-(trifluoromethyl)pyridine-4-carboxamide] in this work.
An IC50 of 7 nM was found for `COc1c(Oc2cnc(C(F)(F)F)c(OC)c2C(=O)Nc2cc(C(N)=O)ncc2C)ccc(OC(F)(F)F)c1F` [Compound 334, N-(2-carbamoyl-5-methyl-4-pyridyl)-5-[3-fluoro-2-methoxy-4-(trifluoromethoxy)phenoxy]-3-methoxy-2-(trifluoromethyl)pyridine-4-carboxamide] in this work.
An IC50 of 15.5 nM was found for `COc1c(Oc2cnc(C(F)(F)F)c(C)c2C(=O)Nc2cnc(C(N)=O)nc2)ccc(OC(F)(F)F)c1F` [Compound 335, 5-[[5-[3-fluoro-2-methoxy-4-(trifluoromethoxy)phenoxy]-3-methyl-2-(trifluoromethyl)pyridine-4-carbonyl]amino]pyrimidine-2-carboxamide] in this work.
An IC50 of 5.6 nM was found for `COc1c(Oc2cnc(C(F)(F)F)c(C)c2C(=O)Nc2cc(C(N)=O)ncc2C)ccc(OC(F)(F)F)c1F` [Compound 336, N-(2-carbamoyl-5-methyl-4-pyridyl)-5-[3-fluoro-2-methoxy-4-(trifluoromethoxy)phenoxy]-3-methyl-2-(trifluoromethyl)pyridine-4-carboxamide] in this work.
An IC50 of 20.5 nM was found for `COc1c(Oc2cnc(C(F)(F)F)c(C)c2C(=O)Nc2ccc(C(N)=O)nc2)ccc(OC(F)(F)F)c1F` [Compound 337, N-(6-carbamoyl-3-pyridyl)-5-[3-fluoro-2-methoxy-4-(trifluoromethoxy)phenoxy]-3-methyl-2-(trifluoromethyl)pyridine-4-carboxamide] in this work.
An IC50 of 47 nM was found for `Cc1c(Oc2ccc(C(F)(F)F)c(F)c2C(=O)Nc2ccnc(C(N)=O)c2)ccc(F)c1Cl` [Compound 338, 4-[[6-(3-chloro-4-fluoro-2-methyl-phenoxy)-2-fluoro-3-(trifluoromethyl)benzoyl]amino]pyridine-2-carboxamide] in this work.
An IC50 of 27 nM was found for `NC(=O)c1cc(NC(=O)c2c(Oc3ccc(F)c(F)c3Cl)ccc(C(F)(F)F)c2F)ccn1` [Compound 339, 4-[[6-(2-chloro-3,4-difluoro-phenoxy)-2-fluoro-3-(trifluoromethyl)benzoyl]amino]pyridine-2-carboxamide] in this work.
An IC50 greater than 3000 nM was found for `NC(=O)c1cc(NC(=O)c2c(Oc3c(F)ccc(F)c3C3CC3)ccc(C(F)(F)F)c2F)ccn1` [Compound 340, 4-[[6-(2-cyclopropyl-3,6-difluoro-phenoxy)-2-fluoro-3-(trifluoromethyl)benzoyl]amino]pyridine-2-carboxamide] in this work.
An IC50 of 330 nM was found for `COc1cc(C(F)F)ccc1Oc1ccc(C(F)(F)F)c(F)c1C(=O)Nc1ccnc(C(N)=O)c1` [Compound 341, 4-[[6-[4-(difluoromethyl)-2-methoxy-phenoxy]-2-fluoro-3-(trifluoromethyl)benzoyl]amino]pyridine-2-carboxamide] in this work.
An IC50 of 4.8 nM was found for `COc1c(Oc2ccc(C(F)(F)F)c(F)c2C(=O)Nc2ccnc(C(N)=O)c2)ccc(OC(F)F)c1F` [Compound 343, 4-[[6-[4-(difluoromethoxy)-3-fluoro-2-methoxy-phenoxy]-2-fluoro-3-(trifluoromethyl)benzoyl]amino]pyridine-2-carboxamide] in this work.
An IC50 of 4.7 nM was found for `CCc1c(Oc2ccc(C(F)(F)F)c(F)c2C(=O)Nc2ccnc(C(N)=O)c2)ccc(OC(F)(F)F)c1F` [Compound 344, 4-[[6-[2-ethyl-3-fluoro-4-(trifluoromethoxy)phenoxy]-2-fluoro-3-(trifluoromethyl)benzoyl]amino]pyridine-2-carboxamide] in this work.
An IC50 of 2.5 nM was found for `NC(=O)c1cc(NC(=O)c2c(Oc3ccc(OC(F)(F)F)c(F)c3C3CC3)ccc(C(F)(F)F)c2F)ccn1` [Compound 345, 4-[[6-[2-cyclopropyl-3-fluoro-4-(trifluoromethoxy)phenoxy]-2-fluoro-3-(trifluoromethyl)benzoyl]amino]pyridine-2-carboxamide] in this work.
An IC50 of 5.8 nM was found for `CCOc1cc(OC(F)(F)F)ccc1Oc1ccc(C(F)(F)F)c(F)c1C(=O)Nc1ccnc(C(N)=O)c1` [Compound 346, 4-[[6-[2-ethoxy-4-(trifluoromethoxy)phenoxy]-2-fluoro-3-(trifluoromethyl)benzoyl]amino]pyridine-2-carboxamide] in this work.
An IC50 of 3.1 nM was found for `CCOc1cc(OC(F)(F)F)ccc1Oc1cc(OC)c(C(F)(F)F)c(F)c1C(=O)Nc1ccnc(C(N)=O)c1` [Compound 347, 4-[[6-[2-ethoxy-4-(trifluoromethoxy)phenoxy]-2-fluoro-4-methoxy-3-(trifluoromethyl)benzoyl]amino]pyridine-2-carboxamide] in this work.
An IC50 of 20 nM was found for `COc1cc(Oc2ccc(F)c(F)c2C)c(C(=O)Nc2ccnc(C(N)=O)c2)c(F)c1C(F)(F)F` [Compound 348, 4-[[6-(3,4-difluoro-2-methyl-phenoxy)-2-fluoro-4-methoxy-3-(trifluoromethyl)benzoyl]amino]pyridine-2-carboxamide] in this work.
An IC50 greater than 3000 nM was found for `CC(C)(C)c1cc(Cc2ccccc2)c(C(=O)Nc2ccnc(C(N)=O)c2)cn1` [Compound 349, 4-benzyl-6-tert-butyl-N-(2-carbamoyl-4-pyridyl)pyridine-3-carboxamide] in this work.
An IC50 greater than 3000 nM was found for `CC(C)(C)c1cc(Cc2ccc(F)c(F)c2)c(C(=O)Nc2ccnc(C(N)=O)c2)cn1` [Compound 350, 6-tert-butyl-N-(2-carbamoyl-4-pyridyl)-4-[(3,4-difluorophenyl)methyl]pyridine-3-carboxamide] in this work.
An IC50 of 410 nM was found for `COc1cc(F)ccc1Oc1cc(C(F)(F)F)nc(C)c1C(=O)Nc1ccnc(C(N)=O)c1` [Compound 351, N-(2-carbamoyl-4-pyridyl)-4-(4-fluoro-2-methoxy-phenoxy)-2-methyl-6-(trifluoromethyl)pyridine-3-carboxamide] in this work.
An IC50 of 1.8 nM was found for `COc1cc(OC(F)(F)F)ccc1Oc1cc(OC)c(C(F)(F)F)c(F)c1C(=O)Nc1ccnc(C(N)=O)c1` [Compound 352, 4-[[2-fluoro-4-methoxy-6-[2-methoxy-4-(trifluoromethoxy)phenoxy]-3-(trifluoromethyl)benzoyl]amino]pyridine-2-carboxamide] in this work.
An IC50 of 17.4 nM was found for `COc1cc(OC(F)(F)F)ccc1Oc1cc(OC)c(C(F)(F)F)c(F)c1C(=O)Nc1ccc(C(N)=O)nc1` [Compound 353, 5-[[2-fluoro-4-methoxy-6-[2-methoxy-4-(trifluoromethoxy)phenoxy]-3-(trifluoromethyl)benzoyl]amino]pyridine-2-carboxamide] in this work.
An IC50 of 30 nM was found for `COc1cc(OC(F)(F)F)ccc1Oc1ccc(C(F)(F)F)c(F)c1C(=O)Nc1cc(C(N)=O)[n+]([O-])cc1C` [Compound 354, 4-[[2-fluoro-6-[2-methoxy-4-(trifluoromethoxy)phenoxy]-3-(trifluoromethyl)benzoyl]amino]-5-methyl-1-oxido-pyridin-1-ium-2-carboxamide] in this work.
An IC50 of 150 nM was found for `COc1cc(OC(F)(F)F)ccc1Oc1ccc(C(F)(F)F)c(F)c1C(=O)Nc1cc(C(N)=O)ncn1` [Compound 355, 6-[[2-fluoro-6-[2-methoxy-4-(trifluoromethoxy)phenoxy]-3-(trifluoromethyl)benzoyl]amino]pyrimidine-4-carboxamide] in this work.
An IC50 of 3.3 nM was found for `COc1cc(OC(F)(F)F)ccc1Oc1ccc(C(F)(F)F)c(F)c1C(=O)Nc1cnnc(C(N)=O)c1` [Compound 356, 5-[[2-fluoro-6-[2-methoxy-4-(trifluoromethoxy)phenoxy]-3-(trifluoromethyl)benzoyl]amino]pyridazine-3-carboxamide] in this work.
An IC50 of 15 nM was found for `COc1cc(OC(F)(F)F)ccc1Oc1ccc(C(F)(F)F)c(F)c1C(=O)Nc1cnc(C(N)=O)nc1` [Compound 357, 5-[[2-fluoro-6-[2-methoxy-4-(trifluoromethoxy)phenoxy]-3-(trifluoromethyl)benzoyl]amino]pyrimidine-2-carboxamide] in this work.
